Blank lines part the entries; values can stand above or below the compound they belong to.
What was measured:
Assay type in all cases: physicochemical
[1] = Dissolution time in water by Modified United States Pharmacopeia Method 641
Protocol: As used herein, the term “Modified United States Pharmacopeia Method 641” denotes a modified form of the Standard United States Pharmacopeia Method 641, where the Modified United States Pharmacopeia Method 641 is carried out as follows: • Place 1.8 g of the particulate iohexol in a meticulously clean, glass-stoppered, 50 mL glass cylinder approximately 1:10 diameter to height in size. • Fill 40 mL of tap water adjusted to 10° C. (±2° C.) into the glass cylinder. • Immediately start shaking the glass cylinder and start recording total time. • Shake the glass cylinder with an up and down movement, keeping the frequency at 12-13 movements per 5 seconds. • After 20 seconds observe for 3 seconds for completeness of dissolution. • Evaluate after 3 seconds, when the bubbles disappear, comparing with pure solvent. • If dissolved completely, record “dissolved in 20 seconds”. • If not dissolved completely, continue shaking for a total time 30 sec • Repeat the dissolution evaluation at 30 seconds, 40 seconds, 1 min., and 1 min. 30 seconds. • Always repeat the dissolution evaluation using the same procedure. • If dissolved completely at time point 1 min 30 sec, record “dissolved in NMT 1 min 30 sec”. • If not dissolved, record “not dissolved in 1 min 30 sec”. 20 oz (600 ml) modified beverage PET bottle for Iohexol Powder for Oral Solution product; 50 ml testing glass cylinder; Tap water. Samples were tested using the Modified USP Method <641> as described herein.

Bulk density = details: Table 6
Excerpt: As used herein, the term “bulk density” of a material denotes total mass of the material divided by the total volume occupied by the material. As used herein, the term “interparticle spacing” denotes the percentage of the “bulk” particle volume which is free space. The interparticle spacing can be calculated from the bulk density and skeletal density. As discussed above, bulk density refers to the density determined by dividing the weight of the sample by its measured volume, for example using the USP <616> method. The skeletal density, sometimes referred to as the “true density,” is determined by dividing the weight of a sample by its “true” volume—i.e., the volume excluding interstitial voids and any open porosity in the sample (e.g., determined by gas displacement techniques). Interparticle spacing can be calculated from the bulk density and skeletal density as exemplified herein: if the bulk density of a particular iohexol sample is ˜0.9 g/cm^3, the corresponding “bulk” volume for 1 g of the sample is 1.11 cm^3; and if the skeletal density of the sample is ˜2 g/cm^3, the corresponding “skeletal” volume (i.e. volume with porosity excluded) for 1 g of this sample is 0.5 cm^3. The difference between the “bulk” volume and “skeletal” volume, 0.61 cm^3, represents the volume of the free space (porosity) in the particle. The interparticle spacing is the difference between the “skeletal” volume and bulk volume, divided by the “bulk” volume, expressed as a percentage (i.e. 0.61 cm^3/1.11 cm^3=55% in this example).

[2] = Interparticle spacing calculated from bulk and skeletal density
Protocol: As used herein, the term “interparticle spacing” denotes the percentage of the “bulk” particle volume which is free space. The interparticle spacing can be calculated from the bulk density and skeletal density. As discussed above, bulk density refers to the density determined by dividing the weight of the sample by its measured volume, for example using the USP <616> method. The skeletal density, sometimes referred to as the “true density,” is determined by dividing the weight of a sample by its “true” volume—i.e., the volume excluding interstitial voids and any open porosity in the sample (e.g., determined by gas displacement techniques).

[3] = Particle size distribution (D10, D50, D90); details: for Particle Size distribution (μm) D50: Table 6, Example 5; for Particle Size distribution (μm) D10 / Particle Size distribution (μm) D90: Table 6
Excerpt: As used herein, the “D90” of a particulate material denotes a diameter value for the particles in the material at which about 90% of the particles have a diameter below the diameter value. For example, in a sample with a D90 of 20 μm, 90% of the particles in the sample have a diameter of 20 μm or less. As used herein, the “D50” of a material denotes a diameter value for the particles in the material at which about 50% of the particles have a diameter below the diameter value. For example, in a sample with a D50 of 10 μm, 50% of the particles in the sample have a diameter of 10 μm or less. As used herein, the “D10” of a material denotes a diameter value for the particles in the material at which about 10% of the particles have a diameter below the diameter value. For example, in a sample with a D10 of 5 μm, 10% of the particles in the sample have a diameter of 5 μm or less.

[4] = Specific surface area by low-temperature nitrogen adsorption (BET); details: for Specific surface area m^2/g: Table 6, Example 5; for Specific Area measured [m^2/g] / Specific Area estimated [m^2/g] / Relative desorbed amount Ad/Ad(crystallized): Table 5; for Specific Area measured [m^2/g]: BET isotherm, nitrogen adsorption; for Specific Area estimated [m^2/g]: calculated from SEM geometry assuming non-porous spheres; for Relative desorbed amount Ad/Ad(crystallized): nitrogen desorbed relative to crystallized iohexol
Protocol: Specific surface area was measured using a low-temperature nitrogen adsorption apparatus, a Pulse Chemisorb 2700.
The specific surface area data, which were evaluated using a BET isotherm, support the nonporous nature/character of the particles. The measured value of the specific surface area was about 2.8 m^2/g, which is consistent with the calculation of the specific surface area of hypothetical material which consists of non-porous spheres with a radius of 3 μm. Considering the skeletal density of crystallized iohexol (2.097 g/cm3), the calculated specific surface area of this hypothetical material is about 4 m^2/g. All data provided by analyses appear to support the conclusion that the crystallized iohexol solid material contains agglomerates consisting of small nonporous particles and that the total specific area is the sum of the outer surface areas of these particles.
Experimentally obtained values of the specific surface area are very low, which is typical of macroporous to non-porous materials. Experimental specific surface area values for all samples are in good agreement with the estimated values based on SEM image analysis, (calculating the particle surface area based on the geometrical shape of particles, i.e., and assuming that the particles are not porous (confirmed by mercury porosimetry as discussed above). Individual values and comparisons of the amount of nitrogen desorption for each sample are summarized in Table 5.

[5] = Skeletal density by helium pycnometer; details: for Skeletal density (g/cm3): Table 6; for Skeletal density: Table 5, Example 3
Protocol: As used herein, the term “interparticle spacing” denotes the percentage of the “bulk” particle volume which is free space. The interparticle spacing can be calculated from the bulk density and skeletal density. As discussed above, bulk density refers to the density determined by dividing the weight of the sample by its measured volume, for example using the USP <616> method. The skeletal density, sometimes referred to as the “true density,” is determined by dividing the weight of a sample by its “true” volume—i.e., the volume excluding interstitial voids and any open porosity in the sample (e.g., determined by gas displacement techniques). […] The porosity of the iohexol particles was also investigated using mercury intrusion, and the skeletal density was determined by helium pycnometer and physical adsorption of nitrogen.

[6] = Exposure to air humidity / moisture uptake; details: exposed to ambient air humidity for 120 hours, SEM
Protocol: Crystallized iohexol samples were also examined by SME analysis for the influence of air humidity (i.e., humidity of ambient/room air). Crystallized iohexol samples were exposed to air humidity for 120 hours.

SMILES: CC(=O)N(CC(O)CO)c1c(I)c(C(=O)NCC(O)CO)c(I)c(C(=O)NCC(O)CO)c1I (centres unmarked) [Batch 01206013, iohexol]
Dissolution time ([1]; Table 4, 1.8 g in 40 mL tap water at 10° C., manual shaking, listed as 01206013): 40 s
Dissolution time ([1]; Table 6, Example 5, listed as 01206013): 40 s
Bulk density (g/cm3) (Bulk density; listed as 01206013): 0.56 g/cm3
Interparticle space (% of bulk volume) ([2]; Table 6, listed as 01206013): 73 % of bulk volume
Particle Size distribution (μm) D50 ([3]; listed as 01206013): 10 μm
Particle Size distribution (μm) D10 ([3]; listed as 01206013): 5 μm
Particle Size distribution (μm) D90 ([3]; listed as 01206013): 15 μm
Specific surface area m^2/g ([4]; listed as 01206013): 4.00 m^2/g

SMILES: CC(=O)N(CC(O)CO)c1c(I)c(C(=O)NCC(O)CO)c(I)c(C(=O)NCC(O)CO)c1I (centres unmarked) [Batch 03202012/1, iohexol]
Dissolution time ([1]; Table 4, 1.8 g in 40 mL tap water at 10° C., manual shaking, listed as 03202012/1): 60 s
Dissolution time ([1]; Table 6, Example 5, listed as 03202012/1): 60 s
Bulk density (g/cm3) (Bulk density; listed as 03202012/1): 0.90 g/cm3
Interparticle space (% of bulk volume) ([2]; Table 6, listed as 03202012/1): 56 % of bulk volume
Skeletal density (g/cm3) [5]: 2.0 g/cm3
Particle Size distribution (μm) D50 ([3]; listed as 03202012/1): 14 μm
Particle Size distribution (μm) D10 ([3]; listed as 03202012/1): 9 μm
Particle Size distribution (μm) D90 ([3]; listed as 03202012/1): 22 μm
Specific surface area m^2/g ([4]; listed as 03202012/1): 0.50 m^2/g

SMILES: CC(=O)N(CC(O)CO)c1c(I)c(C(=O)NCC(O)CO)c(I)c(C(=O)NCC(O)CO)c1I (centres unmarked) [Batch 03202012/8, iohexol]
Dissolution time ([1]; Table 4, 1.8 g in 40 mL tap water at 10° C., manual shaking, listed as 03202012/8): 40 s
Dissolution time ([1]; Table 6, Example 5, listed as 03202012/8): 40 s
Bulk density (g/cm3) (Bulk density; listed as 03202012/8): 0.90 g/cm3
Interparticle space (% of bulk volume) ([2]; Table 6, listed as 03202012/8): 56 % of bulk volume
Skeletal density (g/cm3) [5]: 2.0 g/cm3
Particle Size distribution (μm) D50 ([3]; listed as 03202012/8): 12 μm
Particle Size distribution (μm) D10 ([3]; listed as 03202012/8): 7 μm
Particle Size distribution (μm) D90 ([3]; listed as 03202012/8): 19 μm
Specific surface area m^2/g ([4]; listed as 03202012/8): 0.50 m^2/g

SMILES: CC(=O)N(CC(O)CO)c1c(I)c(C(=O)NCC(O)CO)c(I)c(C(=O)NCC(O)CO)c1I (centres unmarked) [Batch 03202012/9, iohexol]
Dissolution time ([1]; Table 4, 1.8 g in 40 mL tap water at 10° C., manual shaking, listed as 03202012/9): 60 s
Dissolution time ([1]; Table 6, Example 5, listed as 03202012/9): 60 s
Bulk density (g/cm3) (Bulk density; listed as 03202012/9): 0.90 g/cm3
Interparticle space (% of bulk volume) ([2]; Table 6, listed as 03202012/9): 56 % of bulk volume
Skeletal density (g/cm3) [5]: 2.0 g/cm3
Particle Size distribution (μm) D50 ([3]; listed as 03202012/9): 20 μm
Particle Size distribution (μm) D10 ([3]; listed as 03202012/9): 11 μm
Particle Size distribution (μm) D90 ([3]; listed as 03202012/9): 35 μm
Specific surface area m^2/g ([4]; listed as 03202012/9): 0.50 m^2/g

SMILES: CC(=O)N(CC(O)CO)c1c(I)c(C(=O)NCC(O)CO)c(I)c(C(=O)NCC(O)CO)c1I (centres unmarked) [Batch 03302012, iohexol]
Dissolution time ([1]; Table 4, 1.8 g in 40 mL tap water at 10° C., manual shaking, listed as 03302012): 40 s
Dissolution time ([1]; Table 6, Example 5, listed as 03302012): 40 s
Bulk density (g/cm3) (Bulk density; listed as 03302012): 0.56 g/cm3
Interparticle space (% of bulk volume) ([2]; Table 6, listed as 03302012): 73 % of bulk volume
Particle Size distribution (μm) D50 ([3]; listed as 03302012): 10 μm
Particle Size distribution (μm) D10 ([3]; listed as 03302012): 5 μm
Particle Size distribution (μm) D90 ([3]; listed as 03302012): 16 μm
Specific surface area m^2/g ([4]; listed as 03302012): 4.00 m^2/g

SMILES: CC(=O)N(CC(O)CO)c1c(I)c(C(=O)NCC(O)CO)c(I)c(C(=O)NCC(O)CO)c1I (centres unmarked) [CRI, iohexol]
Dissolution, in words ([1]; Example 2): dissolved rapidly
Influence of air humidity on the particles [6]: sintering of originally separated particles was observed
Skeletal density [5]: 2.097 g/mL
Skeletal density ([5]; listed as crystallized iohexol): 2.097 g/mL
Particle Size distribution (μm) D50 ([3]; listed as crystallized iohexol): 10 μm
Specific Area measured [m^2/g] [4]: 2.8 m^2/g
Specific Area measured [m^2/g] ([4]; listed as crystallized iohexol): about 2.8 m^2/g
Specific Area estimated [m^2/g] [4]: 4.0^a m^2/g
Specific Area estimated [m^2/g] ([4]; listed as crystallized iohexol): about 4 m^2/g
Relative desorbed amount Ad/Ad(crystallized) [4]: 1
Specific surface area m^2/g ([4]; listed as crystallized iohexol): about 4 m^2/g

Other lines, results leading:

Dissolution time ([1]; Table 6, Example 5): 90 s
Bulk density (g/cm3) (Bulk density): 0.90 g/cm3
Interparticle space (% of bulk volume) ([2]; Table 6): 56 % of bulk volume
Skeletal density (g/cm3) [5]: 2.0 g/cm3
Particle Size distribution (μm) D10 [3]: 7 μm
Particle Size distribution (μm) D90 [3]: 61 μm
Particle Size distribution (μm) D50 [3]: 27 μm
Specific surface area m^2/g [4]: 0.50 m^2/g
SMILES: CC(=O)N(CC(O)CO)c1c(I)c(C(=O)NCC(O)CO)c(I)c(C(=O)NCC(O)CO)c1I (centres unmarked) [Conventional Sample #1, iohexol]

Dissolution time ([1]; Table 6, Example 5): 90 s
Bulk density (g/cm3) (Bulk density): 0.90 g/cm3
Interparticle space (% of bulk volume) ([2]; Table 6): 56 % of bulk volume
Skeletal density (g/cm3) [5]: 2.0 g/cm3
Particle Size distribution (μm) D10 [3]: 7 μm
Particle Size distribution (μm) D90 [3]: 66 μm
Particle Size distribution (μm) D50 [3]: 29 μm
Specific surface area m^2/g [4]: 0.50 m^2/g
SMILES: CC(=O)N(CC(O)CO)c1c(I)c(C(=O)NCC(O)CO)c(I)c(C(=O)NCC(O)CO)c1I (centres unmarked) [Conventional Sample #2, iohexol]

Skeletal density [5]: 2.029 g/mL
Skeletal density ([5]; listed as spray dried iohexol): 2.029 g/mL
Specific Area measured [m^2/g] [4]: <1 m^2/g
Specific Area measured [m^2/g] ([4]; listed as spray dried iohexol): less than 1 m^2/g
Specific Area estimated [m^2/g] [4]: 0.5^b m^2/g
Relative desorbed amount Ad/Ad(crystallized) [4]: 0.08
Specific surface area m^2/g ([4]; listed as spray dried iohexol): about 0.5 m^2/g
SMILES: CC(=O)N(CC(O)CO)c1c(I)c(C(=O)NCC(O)CO)c(I)c(C(=O)NCC(O)CO)c1I (centres unmarked) [SDI, iohexol]

Source: patent US10350311B2, “Iohexol powder and method of using the same” (Otsuka Pharmaceutical Co., Ltd., priority 2014, dated 2019)
